Data taken from US10202408B2, “Prodrugs and methods of use thereof” (Health Innovation Ventures B.V., priority 2012, dated 2019).
Entries after “also recorded” stand apart in the source; their conditions may differ.

Tests used:
[1] = tested on: 15% E coli NfsA-expressing H1299 xenografts; test: Tumour growth delay, 15% E coli NfsA-expressing H1299 xenografts; type: in vivo, NIH-III mice; conditions: for tumour growth delay: mixed HCT116 and H1299 xenografts, 15% E coli NfsA cells, single (or BID) intraperitoneal dose
Procedure: (§1) Animals weighed 18-25 g at the time of tumour inoculation. Tumours were grown subcutaneously on the right flank of mice by inoculating cells grown in tissue culture (1×10^7 cells in 100 uL serum free α-MEM). Tumour sizes were monitored three times weekly using electronic callipers and treatments were initiated once tumour diameter reached ≥7 mm.
(§2) Tumour bearing mice were randomised into the appropriate treatment groups and tumour size and body weight recorded. Test compounds were formulated on the day of the experiment and kept in foil-wrapped tubes out of direct fluorescent light. If recruitment of animals occurred over multiple days, the drug stocks were aliquoted into tubes and frozen once at […] until required. Mice were treated with a single (or BID) dose of prodrug by intraperitoneal injection and thereafter tumour size and body weight was monitored every second day. Tumour volume was calculated as π (l×w×w)/6, where l is the major axis and w is the perpendicular minor axis. Animals were culled when they had reached the appropriate survival endpoint or when body weight loss exceeded 20% of the pre-treatment value.

[2] = tested on: 15% E coli NfsA-expressing HCT116 xenografts; test: Tumour growth delay, 15% E coli NfsA-expressing HCT116 xenografts; type: in vivo, NIH-III mice; conditions: single dose; 10, 22 and 60 at 1000, 422 and 1330 umol/kg
Procedure: as §1, §2

[3] = tested on: HCT116 POR cell line (over-expressing Cytochrome P450 reductase); test: Oxic versus anoxic low cell density IC50 assay, HCT116 POR cells; type: cell-based, human; conditions: HCT116 POR cell line compared with wild type
Procedure: Compounds were subjected to testing, including low-cell density cytotoxicity assay. Cells (500 cells/well) were seeded in 96-well plates and exposed to prodrug for 4 h, washed, then left to grow for a further 5 days. The SRB assay was employed to determine IC50 values (concentration of prodrug required to inhibit proliferation by 50%). Parental HCT116 cells (HCT116 is a cell line derived from human colon cancer) and cells expressing the example nitroreductase gene nfsA from Escherichia coli were evaluated head-to-head. Parental H1299 cells (H1299 is a cell line derived from lung cancer) and cells expressing the example nitroreductase gene nfsA from Escherichia coli were evaluated head-to-head. Parental HCT116 cells and cells expressing human AKR1C3 were evaluated head-to-head. Parental H1299 cells and cells expressing human AKR1C3 were evaluated head-to-head. In a variation of these assays test compounds were assessed for their ability to give hypoxia-selective cell killing. Here wild type HCT116, H460 (H460 is a cell line derived from lung cancer), H1299 and SiHa cells (SiHa is a cell line derived from cervical cancer) were used in addition to HCT116 cells engineered to over express cytochrome P450 reductase (HCT116 POR), a human one-electron nitroreductase. […]

[4] = tested on: HCT116 cells engineered to over-express human aldo-ketoreductase 1C3 (AKR1C3); test: Low cell density IC50 (SRB) assay, HCT116 wild type versus AKR1C3 over-expressing cells; type: cell-based; conditions: 4 h exposure
Procedure: (§3) Compounds were subjected to testing, including low-cell density cytotoxicity assay. Cells (500 cells/well) were seeded in 96-well plates and exposed to prodrug for 4 h, washed, then left to grow for a further 5 days. The SRB assay was employed to determine IC50 values (concentration of prodrug required to inhibit proliferation by 50%). Parental HCT116 cells (HCT116 is a cell line derived from human colon cancer) and cells expressing the example nitroreductase gene nfsA from Escherichia coli were evaluated head-to-head. Parental H1299 cells (H1299 is a cell line derived from lung cancer) and cells expressing the example nitroreductase gene nfsA from Escherichia coli were evaluated head-to-head. Parental HCT116 cells and cells expressing human AKR1C3 were evaluated head-to-head. Parental H1299 cells and cells expressing human AKR1C3 were evaluated head-to-head. In a variation of these assays test compounds were assessed for their ability to give hypoxia-selective cell killing. Here wild type HCT116, H460 (H460 is a cell line derived from lung cancer), H1299 and SiHa cells (SiHa is a cell line derived from cervical cancer) were used in addition to HCT116 cells engineered to over express cytochrome P450 reductase (HCT116 POR), a human one-electron nitroreductase. Low-cell density cytotoxicity assays were performed as above under oxic conditions and compared to experiments where cells were shown 4 h of anoxia during the prodrug exposure period, before being washed free of prodrug and then left to grow for a further 5 days under oxic conditions, as above.

[5] = tested on: H1299 cells engineered to over-express E coli NfsA; test: Low cell density IC50 (SRB) assay, H1299 wild type versus E coli NfsA over-expressing cells; type: cell-based, human
Procedure: as §3

[6] = tested on: bacterial nitroreductases from the NfsA and NfsB families; test: GFP SOS assay with nitroreductase over-expression library; type: cell-based, E. coli strain SOS-R4; conditions: 55 candidate nitroreductase library, 6 h challenge
Source text: The method employed the over-expression of a candidate nitroreductase gene from plasmid pUCX in an SOS reporter strain, as first described in Prosser et al., 2010, Biochem Pharmacol 79, 678-687. In order to enhance the sensitivity of the SOS reporter system, an sfiA::GFP reporter construct was integrated into a CDF-based plasmid (which contains a compatible origin of replication with pUCX) to give the pANODuet reporter plasmid for GFP screening. In addition, nfsA, nfsB, azoR, and nemA genes were deleted to minimise background metabolism, and the tolC gene deleted to minimise efflux of test compounds; this strain was designated SOS-R3. Further improvements were obtained by deleting the mdaB, ycaK, and yieF genes to minimise background metabolism, and by introducing transcriptional terminators to the pANODUET reporter plasmid. This final reporter strain was designated SOS-R4.
Stored glycerols of the 55-membered nitroreductase library in SOS-R4 were thawed and used to inoculate overnight cultures (Lysogeny Broth (LB) amended with 100 μg ml^−1 Ampicillin, 50 μg ml^−1 Spectinomycin, 0.4% glucose) that were incubated at 30° C., 200 rpm for 16 h. The next morning the GFP-SOS assay was commenced by inoculation of 195 μl fresh assay media (LB+100 μg ml^−1 Ampicillin, 50 μg ml^−1 Spectinomycin, 0.2% glucose, 50 μM IPTG) with 15 μl of overnight culture in individual wells of a 96-well plate. Plates were incubated at 30° C., 200 rpm for 2.5 h (pre-challenge period), following which cultures were diluted 1:2 by splitting 50:50 into fresh assay media (+DMSO to 0.5% final concentration) and fresh challenge media (assay media+drug to desired concentration, DMSO to 0.5% final concentration) to final volumes of 80 μl apiece in duplicate on a 384-well plate. Plates were incubated at 30° C., 200 rpm for 6 h (challenge period). GFP expression was determined at excitation 488 nm/emission 509 nm. Turbidity was determined by OD600 and fluorescence data from any replicates not found to be within 15% of the median culture turbidity were discarded.

[7] = tested on: HCT116 MCLs with 3% E coli NfsA-expressing cells; test: MCL clonogenic bystander assay, HCT116 MCLs seeded with 3% E coli NfsA-expressing cells; type: cell-based, human; conditions: 97% wild type HCT116, 3% E coli NfsA-expressing cells
Procedure: (§4) In parallel, a three dimensional high-cell density multi-cellular layer (MCL) clonogenic assay was performed. 1×10^6 cells of either 100% HCT-116^WT or containing 97% WT with a minor 3% HCT-116^NTR cell population were seeded into a collagen-coated Teflon microporous membrane and left to grow for 3 days. MCLs were then exposed to prodrug for 5 h. After treatment, MCLs were enzyme dissociated, diluted in fresh medium and plated to determine clonogenic survival. To discriminate clonogenic activator (NTR+) from target (NTR−) colonies, cells were plated in non-selective medium (total cells) and medium containing 1 μM puromycin (activator cells). Colonies were grown for 10 days before staining. Colonies containing >50 cells were counted. A variation of this assay was also used to assess for evidence of AKR1C3-dependent cytotoxicity. Here either 100% HCT-116W^T or 100% HCT-116^AKR1C3 cells were seeded to provide MCLs that were then exposed to prodrug.

[8] = tested on: HCT116 cells engineered to over-express E coli NfsA; test: Low cell density IC50 (SRB) assay, HCT116 wild type versus E coli NfsA over-expressing cells; type: cell-based, human
Procedure: as §3

[9] = tested on: HCT116, H460, H1299 and SiHa wild type cancer cell lines; test: Oxic versus anoxic low cell density IC50 assay, wild type cancer cell lines; type: cell-based, human; conditions: 4 h anoxia during prodrug exposure versus oxic
Procedure: as §3

[10] = tested on: bacterial nitroreductases from the NfsA and NfsB families; test: GFP SOS assay with nitroreductase over-expression library; type: cell-based, E. coli strain SOS-R4; conditions: single and poly mutated variants of NfsA_Ec, single-mutated variant of NfsA_Bs
[11] = tested on: HCT116 MCLs over-expressing AKR1C3; test: Multicellular layer (MCL) clonogenic assay, HCT116 wild type versus AKR1C3 over-expressing MCLs; type: cell-based, human
Procedure: as §4

[12] = tested on: wild type SiHa tumour xenografts; test: Excision assay with and without radiation, wild type SiHa tumour xenografts; type: in vivo, NIH-III nude mice; conditions: for cell killing in combination with radiation versus radiation alone: HCT116 POR and wild type SiHa xenografts, 10 or 15Gy, single (or BID) intraperitoneal dose; for hypoxic cell kill in vivo (log cell kill): with or without 10Gy radiation, 22 at 422, 300 and 11 at 1330, 23 at 1000 umol/kg
Procedure: (§5) Tumours were grown subcutaneously in the flank of NIH-III mice by inoculating cells grown in tissue culture. Tumours were monitored using electronic calipers. When tumours reached treatment size, mice were randomized to treatment groups (five to seven per group). Compounds were given as single (or BID) intraperitoneal doses alone or 5 min after whole body irradiation (^60Co source). Eighteen hours after treatment, tumours were excised, weighed, minced, dissociated enzymatically, and plated to determine clonogenicity. Clonogens/gram of tissue were calculated relative to controls and effects of treatment were tested for significance (ANOVA with Dunnett's).

[13] = tested on: H1299 cells engineered to over-express human aldo-ketoreductase 1C3 (AKR1C3); test: Low cell density IC50 (SRB) assay, H1299 wild type versus AKR1C3 over-expressing cells; type: cell-based; conditions: 4 h exposure
Procedure: as §3

[14] = tested on: HCT116 tumour xenografts over-expressing Cytochrome P450 reductase; test: Excision assay with and without radiation, HCT116 POR tumour xenografts; type: in vivo, mice; conditions: 1330 μmol/kg, with or without 15Gy radiation
Procedure: as §5

[15] = single dose, 10, 22, 60 and 11 at 750, 422, 1330 and 1330 umol/kg

Row | SMILES | tumour growth delay [1] | E coli NfsA mediated anti-tumour efficacy (mean tumour volume) [1, 15] | E coli NfsA mediated anti-tumour efficacy (mean tumour volume) [2] | Hypoxic Cytotoxicity Ratios (HCR) [3] | AKR1C3-mediated cytotoxicity (IC50 wild type versus AKR1C3) [4] | E coli NfsA-mediated cytotoxicity (IC50 wild type versus NfsA) [5] | metabolism by bacterial nitroreductases (SOS response) [6] | bystander cell killing in MCLs [7] | E coli NfsA-mediated cytotoxicity (IC50 wild type versus NfsA) [8] | hypoxia-dependent cytotoxicity [9] | activity with mutated nitroreductase variants [10] | AKR1C3-dependent clonogenic cell kill in MCLs [11] | cell killing in combination with radiation versus radiation alone [12] | hypoxic cell kill in vivo (log cell kill) [12] | E coli NfsA mediated anti-tumour efficacy (mean tumour volume) ([1]; 500 umol/kg twice daily (BID), total 1000 umol/kg) | AKR1C3-mediated cytotoxicity (IC50 wild type versus AKR1C3) [13] | hypoxic cell kill in vivo (log cell kill) [14]
1 | CN(CCOP(=O)(O)O)C(=O)c1cc(N(CCBr)CCBr)c(S(C)(=O)=O)cc1[N+](=O)[O-] [compound 10, 2-(5-(bis(2-bromoethyl)amino)-N-methyl-4-(methylsulfonyl)-2-nitrobenzamido)ethyl dihydrogen phosphate] | profound tumour growth delay | display significant E coli NfsA mediated anti-tumour efficacy | display significant E coli NfsA mediated anti-tumour efficacy |  |  |  |  |  |  |  |  |  |  |  |  |  | 
2 | CN(CCO)C(=O)c1cc(N(CCBr)CCBr)c(S(C)(=O)=O)cc1[N+](=O)[O-] [compound 14, 5-(bis(2-bromoethyl)amino)-N-(2-hydroxyethyl)-N-methyl-4-(methylsulfonyl)-2-nitrobenzamide] |  |  |  | Larger HCRs; also recorded: The degree of this effect was increased | less susceptible to AKR1C3-mediated cytotoxicity than PR-104A | produce E coli NfsA-mediated cytotoxicity | substrates for multiple wild type and mutant bacterial nitroreductases from the NfsA and NfsB families | display evidence of metabolism by the 3% E coli NfsA-expressing cells with bystander cell killing of the 97% non-expressing neighbour cells | produce E coli NfsA-mediated cytotoxicity | increased cytotoxicity in cells under hypoxia | demonstrated | do not cause AKR1C3-dependant cytotoxicity |  |  |  |  | 
3 | CN1CCN(C(=O)c2cc(N(CCBr)CCBr)c(S(C)(=O)=O)cc2[N+](=O)[O-])CC1 [compound 22, (5-(bis(2-bromoethyl)amino)-4-(methylsulfonyl)-2-nitrophenyl)(4-methylpiperazin-1-yl)methanone] | profound tumour growth delay | display significant E coli NfsA mediated anti-tumour efficacy | display significant E coli NfsA mediated anti-tumour efficacy | Larger HCRs; also recorded: The degree of this effect was increased | less susceptible to AKR1C3-mediated cytotoxicity than PR-104A | produce E coli NfsA-mediated cytotoxicity | substrates for multiple wild type and mutant bacterial nitroreductases from the NfsA and NfsB families | display evidence of metabolism by the 3% E coli NfsA-expressing cells with bystander cell killing of the 97% non-expressing neighbour cells | produce E coli NfsA-mediated cytotoxicity | increased cytotoxicity in cells under hypoxia | demonstrated | do not cause AKR1C3-dependant cytotoxicity | increased cell killing above what could be achieved with radiation alone | significant hypoxic cell kill in vivo | display significant E coli NfsA mediated anti-tumour efficacy | less susceptible to AKR1C3-mediated cytotoxicity than PR-104A | 
4 | CS(=O)(=O)OCCN(CCBr)c1ccc([N+](=O)[O-])cc1C(=O)NCCOP(=O)(O)O [compound 60, 2-((2-bromoethyl)(4-nitro-2-((2-(phosphonooxy)ethyl)carbamoyl)phenyl)amino)ethyl methanesulfonate] | profound tumour growth delay | display significant E coli NfsA mediated anti-tumour efficacy | display significant E coli NfsA mediated anti-tumour efficacy |  |  |  |  |  |  |  |  |  |  |  |  |  | 
5 | CS(=O)(=O)c1cc([N+](=O)[O-])c(C(=O)NCCOP(=O)(O)O)cc1N(CCBr)CCBr [compound 300, 2-(5-(bis(2-bromoethyl)amino)-4-(methylsulfonyl)-2-nitrobenzamido)ethyl dihydrogen phosphate] |  |  |  |  |  |  |  |  |  |  |  |  | increased cell killing above what could be achieved with radiation alone | significant hypoxic cell kill in vivo |  |  | significant hypoxic cell kill in vivo
